Source: PMC5923171, “Novel Zinc-Attenuating Compounds as Potent Broad-Spectrum Antifungal Agents with In Vitro and In Vivo Efficacy” (Antimicrobial Agents and Chemotherapy, 2018)
In brackets after ≈: the same amount, converted by molar mass.

Columns and labels:
[1] = biological target: fungal plasma membrane H^+-ATPase (Saccharomyces cerevisiae, UniProt P05030); test: H+-ATPase-inhibitory activity; assay type: biochemical
[2] = Potentiometric titration with CaCl2; assay type: binding; settings: DMSO-water (70:30, vol/vol)
Experimental: (§1) The Zn^2+-binding properties of ZAC307 and ZAC989 were further evaluated using a potentiometric assay, where pH is measured as a function of base (NaOH) added to the compound in either the absence or presence of metal. […] To determine the deprotonation constant, a solution of 1 mM ZAC307 or ZAC989 was titrated with 0.3 M NaOH at constant ionic strength (Fig. 2A and B). In a second run, the same titration was performed in the presence of 0.5 eq of Zn^2+ for ZAC307 and ZAC989. A shift in the pH curve in the presence of the metal (ZAC307, 0.5 eq of Zn^2+ [Fig. 2A]) compared to the absence of the metal (ZAC307 [Fig. 2A]) indicates binding of Zn^2+ to the compound. The measured pH data were analyzed with the Hyperquad program suite, taking into account all relevant equilibrium constants, including also the constants for metal hydroxylation. The analysis provides the pKa values and metal complex stability constants, as well as ligand-metal complex speciation calculation, indicating how many ZAC molecules are involved in coordinating the Zn^2+ ion at different pH values. […] ZAC989 bound copper with the formation constants log β1, log β2, and log β3 of 7.83, 13.37, and 20.62, respectively. The most dominant ZAC989-copper stoichiometry was a 3:1 stoichiometry (Fig. 2E).
Potentiometric measurements were carried out in DMSO-water (70:30, vol/vol) at 25°C as described previously ([22]). […]

C. glabrata ATCC 90030 = test: Antifungal susceptibility testing (MIC); assay type: cell-based, Candida glabrata; settings: Nakaseomyces glabratus, ATCC90030; at least 50% growth inhibition, RPMI, 24 h, 34°C
Experimental: (§2) Antifungal susceptibility testing was carried out as described previously ([38], [39]), with a few modifications. Briefly, for each yeast or mold growth inhibition assay, frozen stocks of yeast cells or spores were diluted to a final concentration of 0.5 × 10^5 to 2.5 × 10^5 CFU/ml in sterile water. ZAC989, ZAC307, and ZAC623 were dissolved in DMSO to 10 mM stocks from which half-log serial dilutions were prepared. Growth assays were subsequently performed by pipetting 3 μl of compound dissolved in DMSO (giving a final concentration of 1.5% DMSO), 100 μl of cell-spore suspension, and 97 μl of 2× RPMI medium (20.8 g/liter of RPMI 1640 medium, 69.06 g/liter of morpholinepropanesulfonic acid [MOPS], 36 g/liter of glucose) into a microtiter plate that was incubated for 24 h (yeasts) or 48 to 72 h (molds) at 34°C. Fungal growth was determined spectrophotometrically by optical density reading of each well at a wavelength of 492 nm on a Victor X5 (Perkin-Elmer) plate reader. […] Standard errors between repeated experiments were generally below 5%. The growth effect of exogenous addition of various divalent metals was evaluated by performing the antifungal susceptibility assay in the presence of 5 μM ZAC989 or ZAC307 and with increasing concentrations (0.003 to 50 μM) of ZnSO4, CuSO4, (NH4)2Fe(SO4)2, MgCl2, and CaCl2.

C. glabrata Cg003 = test: Antifungal susceptibility testing (MIC); assay type: cell-based, Candida glabrata; settings: Nakaseomyces glabratus, CG003, 24 h
Experimental: as §2

[3] = Human hepatocyte (HepG2) proliferation assay; assay type: cell-based; settings: human, HepG2 cells, XTT; for EC50 at 24 h: 24 h exposure; for EC50 at 72 h: 72 h exposure
Experimental: In each well of a 96-well tissue culture plate (GR-655180; Grenier), 10,000 human hepatocytes (HepG2) (85011430; […] Sigma]) supplemented with 2 mM L-[…]-020-1B; Biological Industries), 1% nonessential amino acids (XC-[…]/100; Biosera), and 10% fetal bovine serum (BI-04-007-1A; Biological Industries), and plates were incubated overnight at 37°C and 5% CO2. […] The plate was incubated for a further 24 h or 72 h at 37°C and 5% CO2. The medium was then replaced with 100 μl of freshly prepared 2,3-bis-(2-methoxy-4-nitro-5-sulfophenyl)-2H-tetrazolium-5-carboxanilide salt (XTT) sodium salt solution (0.5 mg/ml of XTT; […]; Sigma) in RPMI 1640 ([…]; Sigma-Aldrich) with 3.83 μg/ml of phenazine methosulfate ([…]; Sigma-Aldrich) and incubated 2 to 3 h at 37°C and 5% CO2 ([43]). The color reaction was measured on Victor X5 plate reader (Perkin-Elmer) at OD450, and the half-maximal effective concentration (EC50) was calculated. Tamoxifen (85256; Sigma) was used as a positive-control compound.

[4] = Potentiometric titration, ligand-copper complex formation; assay type: binding; settings: for copper binding (in words): potentiometric titration with CuSO4
Experimental: as §1
Potentiometric measurements were carried out in DMSO-water (70:30, vol/vol) at 25°C as described previously ([22]). Titrations were performed with a pH meter (Denver Instruments) utilizing a glass electrode with AgCl reference filled with 3.0 M KCl. The electrode was equilibrated in DMSO-water (70:30, vol/vol) for at least 1 h before use. All experiments were performed at a constant ionic strength (0.1 M NaClO4). Three milliliters of a solution containing 1 mM compound was titrated with 0.3 M NaOH by manual additions in 1- to 5-μl increments with magnetic stirring. The metal-ligand binding constants were obtained from titrations of the metal complex solutions prepared in a 1:2 metal-to-ligand ratio. The titration data were refined by the nonlinear least-squares refinement program Hyperquad2013 ([37]) to determine the deprotonation and stability constants.

[5] = cited from earlier work
[6] = DMSO-water (70:30, vol/vol), CuSO4

fungal plasma membrane H^+-ATPase, sequence (P05030 whole entry): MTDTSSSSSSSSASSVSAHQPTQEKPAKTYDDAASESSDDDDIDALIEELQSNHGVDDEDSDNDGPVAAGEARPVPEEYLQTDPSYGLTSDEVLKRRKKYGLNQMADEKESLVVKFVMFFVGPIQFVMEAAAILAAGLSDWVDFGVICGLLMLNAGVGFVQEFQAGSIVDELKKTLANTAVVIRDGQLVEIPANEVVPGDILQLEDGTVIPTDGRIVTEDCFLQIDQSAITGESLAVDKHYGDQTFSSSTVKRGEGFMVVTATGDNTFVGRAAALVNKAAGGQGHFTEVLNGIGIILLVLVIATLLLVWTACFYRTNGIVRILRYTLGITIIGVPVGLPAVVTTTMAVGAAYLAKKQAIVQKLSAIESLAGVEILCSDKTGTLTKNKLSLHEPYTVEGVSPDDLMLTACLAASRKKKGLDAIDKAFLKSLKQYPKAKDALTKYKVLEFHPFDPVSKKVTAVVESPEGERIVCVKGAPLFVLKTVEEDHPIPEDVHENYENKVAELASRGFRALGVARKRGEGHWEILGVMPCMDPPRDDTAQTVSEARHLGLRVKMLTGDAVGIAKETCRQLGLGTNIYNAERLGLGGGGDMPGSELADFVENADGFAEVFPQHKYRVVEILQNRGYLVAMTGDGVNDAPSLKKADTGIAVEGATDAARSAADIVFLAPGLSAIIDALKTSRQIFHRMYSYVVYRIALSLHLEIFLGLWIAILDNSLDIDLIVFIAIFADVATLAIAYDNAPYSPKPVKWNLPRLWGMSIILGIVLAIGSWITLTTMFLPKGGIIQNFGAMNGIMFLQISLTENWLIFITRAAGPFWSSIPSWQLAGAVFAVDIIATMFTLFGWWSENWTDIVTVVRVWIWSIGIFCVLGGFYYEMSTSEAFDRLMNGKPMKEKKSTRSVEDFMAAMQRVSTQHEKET

| Compound | H^+-ATPase-inhibitory activity [1] | Ca^2+ binding [2] | MIC (C. glabrata ATCC 90030) | MIC (C. glabrata Cg003) | EC50 at 24 h [3] | EC50 at 72 h [3] | formation constant log β1 (copper) [4, 6] | formation constant log β2 (copper) [4, 6] | formation constant log β3 (copper) [4, 6] | copper binding (in words) [4] | zinc chelation (in words) [5] |
| --- | --- | --- | --- | --- | --- | --- | --- | --- | --- | --- | --- |
| Cc1cc(O)n(-c2cc(N3CC[C@H](Oc4cnccc4C#N)C3)ncn2)n1 [ZAC989, 3-[(3S)-1-[6-(5-hydroxy-3-methyl-pyrazol-1-yl)pyrimidin-4-yl]pyrrolidin-3-yl]oxy-pyridine-4-carbonitrile] | lacked H^+-ATPase-inhibitory activity | negligible | 0.9 µg/mL (≈ 2.48 µM) | 0.6 µg/mL (≈ 1.65 µM) | > 28 µg/mL | 6.9 ± 0.7 µg/mL (≈ 19 µM) | 7.83 | 13.37 | 20.62 | chelates copper | – |
| CN(C)c1cc(-n2nc(-c3ccccc3)cc2O)ncn1 [ZAC307, 2-[6-(dimethylamino)pyrimidin-4-yl]-5-phenyl-pyrazol-3-ol] | lacked H^+-ATPase-inhibitory activity | negligible | 0.2 µg/mL (≈ 0.711 µM) | 0.2 µg/mL (≈ 0.711 µM) | > 28 µg/mL | 13.2 ± 0.8 µg/mL (≈ 46.9 µM) | – | – | – | binds copper | – |
| O=C(O)CN(CCN(CC(=O)O)CC(=O)O)CC(=O)O [EDTA] | – | – | – | – | > 28 µg/mL | > 29 µg/mL | – | – | – | – | very potent zinc chelators |
| c1ccc(CN(CCN(Cc2ccccn2)Cc2ccccn2)Cc2ccccn2)nc1 [TPEN, N,N,N’,N’-tetrakis(2-pyridylmethyl)-ethylenediamine] | – | – | – | – | 1.6 ± 0.2 µg/mL (≈ 3.77 µM) | 1.4 ± 0.8 µg/mL (≈ 3.3 µM) | – | – | – | – | very potent zinc chelators |
